Reference: PubChem BioAssay AID1963985 (Molecular Pharmacology Branch, DTP, NCI, 2024)

System: 252836-082-R-J2-PDC tumor spheroids, viability
Experiment: Anticancer human tumor 252836-082-R-J2-PDC patient-derived head and neck squamous cell carcinoma cell line growth inhibition [PI3K]
Conditions: spheroids with HUVEC and MSC; for IC50: curve of first compound; for viability, T/C: stronger effect = lower value; active means viability on the fitted dose curve at most 10% of control; inactive means the rest
How it was run: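 High-throughput combination screen: PI3K inhibitors crossed with targeted small molecules on complex spheroids of tumor cells, HUVEC and MSCs at 37 degrees C, 5% CO2. Top concentration was at or near clinical Cmax (otherwise 10 microM), with half-log decrements.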

[1] = second compound 0.0316 µM, first compound 0.0316 µM
[2] = second compound 0.0316 µM, first compound 0.1 µM
[3] = second compound 0.0316 µM, first compound 0.316 µM
[4] = second compound 0.0316 µM, first compound 1 µM
[5] = second compound 0.0316 µM, first compound 3.16 µM
[6] = second compound 0.0316 µM, first compound 10 µM
[7] = second compound 0.1 µM, first compound 0.0316 µM
[8] = second compound 0.1 µM, first compound 0.1 µM
[9] = second compound 0.1 µM, first compound 0.316 µM
[10] = second compound 0.1 µM, first compound 1 µM
[11] = second compound 0.1 µM, first compound 3.16 µM
[12] = second compound 0.1 µM, first compound 10 µM
[13] = second compound 0.316 µM, first compound 0.0316 µM
[14] = second compound 0.316 µM, first compound 0.1 µM
[15] = second compound 0.316 µM, first compound 0.316 µM
[16] = second compound 0.316 µM, first compound 1 µM
[17] = second compound 0.316 µM, first compound 3.16 µM
[18] = second compound 0.316 µM, first compound 10 µM
[19] = second compound 1 µM, first compound 0.0316 µM
[20] = second compound 1 µM, first compound 0.1 µM
[21] = second compound 1 µM, first compound 0.316 µM
[22] = second compound 1 µM, first compound 1 µM
[23] = second compound 1 µM, first compound 3.16 µM
[24] = second compound 1 µM, first compound 10 µM
[25] = second compound 3.16 µM, first compound 0.0316 µM
[26] = second compound 3.16 µM, first compound 0.1 µM
[27] = second compound 3.16 µM, first compound 0.316 µM
[28] = second compound 3.16 µM, first compound 1 µM
[29] = second compound 3.16 µM, first compound 3.16 µM
[30] = second compound 3.16 µM, first compound 10 µM
[31] = second compound 10 µM, first compound 0.0316 µM
[32] = second compound 10 µM, first compound 0.1 µM
[33] = second compound 10 µM, first compound 0.316 µM
[34] = second compound 10 µM, first compound 1 µM
[35] = second compound 10 µM, first compound 3.16 µM
[36] = second compound 10 µM, first compound 10 µM
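Further: spheroids exposed to agents for seven days before readout.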
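Wherever viability, T/C is given: percent of vehicle DMSO control viability so 100% = untreated growth.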

Cn1ncc(Cl)c1-c1cc(C(=O)NC(CN)Cc2cccc(F)c2)sc1Cl (centres undefined) + Cc1nc(NC(=O)N2CCCC2C(N)=O)sc1-c1ccnc(C(C)(C)C(F)(F)F)c1
inactive: viability, T/C [1] 82.8% | viability, T/C [2] 65% | viability, T/C [3] 57.8% | viability, T/C [4] 33.6% | viability, T/C [5] 28.4% | viability, T/C [6] 17.6% | viability, T/C [7] 83.9% | viability, T/C [8] 64% | viability, T/C [9] 67.5% | viability, T/C [10] 41.8% | viability, T/C [11] 27.4% | viability, T/C [12] 12.2% | viability, T/C [13] 67.4% | viability, T/C [14] 61.3% | viability, T/C [15] 52.4% | viability, T/C [16] 36.9% | viability, T/C [17] 29.5% | viability, T/C [18] 11.1% | viability, T/C [19] 52% | viability, T/C [20] 47.4% | viability, T/C [21] 44.6% | viability, T/C [22] 35.8% | viability, T/C [23] 28.6% | viability, T/C [24] 12% | viability, T/C [25] 44.5% | viability, T/C [26] 42.1% | viability, T/C [27] 43.6% | viability, T/C [28] 30.7% | viability, T/C [29] 25.4% | viability, T/C [30] 9.67% | viability, T/C [31] 40.4% | viability, T/C [32] 36.1% | viability, T/C [33] 34.1% | viability, T/C [34] 26.1% | viability, T/C [35] 20.9%
362 nM: IC50 (second compound 0.316 µM)
< 31.6 nM: IC50 (second compound 3.16 µM) | IC50 (second compound 10 µM)
657 nM: IC50 (second compound 0.1 µM)
52.2 nM: IC50 (second compound 1 µM)
391 nM: IC50 (second compound 0.0316 µM)
active: viability, T/C [36] 7.53%

C=CC(=O)N1CCN(c2nc(=O)n(-c3c(C)ccnc3C(C)C)c3nc(-c4c(O)cccc4F)c(F)cc23)C(C)C1 (centres undefined) + Cc1nc(NC(=O)N2CCCC2C(N)=O)sc1-c1ccnc(C(C)(C)C(F)(F)F)c1
< 31.6 nM: IC50 (second compound 3.16 µM) | IC50 (second compound 10 µM)
inactive: viability, T/C [1] 101% | viability, T/C [2] 87.1% | viability, T/C [3] 104% | viability, T/C [4] 95.7% | viability, T/C [5] 107% | viability, T/C [6] 107% | viability, T/C [7] 78.5% | viability, T/C [8] 82.1% | viability, T/C [9] 101% | viability, T/C [10] 79.5% | viability, T/C [11] 105% | viability, T/C [12] 95.8% | viability, T/C [13] 79.9% | viability, T/C [14] 83.2% | viability, T/C [15] 76% | viability, T/C [16] 86.5% | viability, T/C [17] 84.5% | viability, T/C [18] 80.9% | viability, T/C [19] 61.2% | viability, T/C [20] 60.4% | viability, T/C [21] 80.3% | viability, T/C [22] 73% | viability, T/C [23] 64.9% | viability, T/C [24] 75.9% | viability, T/C [25] 47.2% | viability, T/C [26] 49.1% | viability, T/C [27] 50.2% | viability, T/C [28] 49.2% | viability, T/C [29] 74% | viability, T/C [30] 44.9% | viability, T/C [31] 37.2% | viability, T/C [32] 34.5% | viability, T/C [33] 36.3% | viability, T/C [34] 36.5% | viability, T/C [35] 40.2% | viability, T/C [36] 42.2%
> 10000 nM: IC50 (second compound 0.0316 µM) | IC50 (second compound 0.1 µM) | IC50 (second compound 0.316 µM) | IC50 (second compound 1 µM)
